# Test results as given in patent US20240226098A1, “COMPOUNDS AND METHODS FOR MODULATING SPLICING” (REMIX THERAPEUTICS INC., priority 2020, published 2024).
# Assays:
# Format in all cases: cell-based
# HTT CJ mRNA = test: Gene panel canonical junction qPCR assay: decrease in HTT CJ mRNA; details: protocol as for Table 2, read-out: HTT (IC50, decrease in CJ mRNA levels)
# Summary of the method: (§1)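 A673 or K562 cells were treated 24 h at 37 °C with an 11-point 3-fold dilution series (top dose 10 uM final, DMSO ≤0.25%). Lysates went to RT-qPCR for the canonical exon-exon junction transcript, normalized to GAPDH, GUSB or PPIA. Levels were taken as ΔΔCt versus DMSO control and converted to RQ via 2^(−ΔΔCt).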
# SMN2 CJ mRNA = test: Gene panel canonical junction qPCR assay: decrease in SMN2 CJ mRNA; details: protocol as for Table 2, read-out: SMN2 (IC50, decrease in CJ mRNA levels)
# Summary of the method: as §1
# Target C CJ mRNA = test: Gene panel canonical junction qPCR assay: decrease in Target C CJ mRNA; details: protocol as for Table 2, read-out: Target C (IC50, decrease in CJ mRNA levels)
# Summary of the method: as §1
# [1] = system: HTT mRNA, canonical junction (CJ); test: Splicing assay (RT-qPCR): decrease in HTT canonical junction (CJ) mRNA; details: A673 or K562 cell line, 24 hours treatment, top dose 10 uM; concentration having 50% response in CJ decrease
# Summary of the method: (§2)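 A673 (DMEM, 10% FBS) or K562 (IMDM, 10% FBS) cells treated 24 h at 37 °C with 11-point 3-fold dilutions, top 10 uM, ≤0.25% DMSO. Lysates analysed by one-step RT-qPCR for HTT CJ and AJ isoforms. Normalised to PPIA (A673) or GAPDH/GUSB (K562).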
# [2] = system: HTT mRNA, alternative junction (AJ); test: Splicing assay (RT-qPCR): increase in HTT alternative junction (AJ) mRNA; details: A673 or K562 cell line, 24 hours treatment, top dose 10 uM; concentration having 50% response in AJ increase
# Summary of the method: as §2
IC50 (HTT CJ mRNA) [µM],IC50 (SMN2 CJ mRNA) [µM],IC50 (Target C CJ mRNA) [µM],Structure (SMILES),AC50 [1] [µM],AC50 [2] [µM]
1 to 10,< 0.1,1 to 10,"Cc1cn2cc(NC(=O)c3ccc(N4CCN(C)C(C)C4)c4ccnnc34)cc(F)c2n1 (stereo in doubt) [Compound 150, 5-[(3R)-3,4-dimethylpiperazin-1-yl]-N-[8-fluoro-2-methylimidazo[1,2-a]pyridin-6-yl]cinnoline-8-carboxamide]",1 to 10,1 to 10
0.1 to 1,< 0.1,1 to 10,"Cc1cn2cc(NC(=O)c3ccc(N4CCC(N(C)C)CC4)c4nccnc34)cc(F)c2n1 [Compound 158, 8-[4-(dimethylamino)piperidin-1-yl]-N-[8-fluoro-2-methylimidazo[1,2-a]pyridin-6-yl] quinoxaline-5-carboxamide]",0.1 to 1,0.1 to 1
0.1 to 1,< 0.1,1 to 10,"Cc1cn2cc(NC(=O)c3ccc(N4CCNC(C)C4)c4nccnc34)cc(F)c2n1 (stereo not drawn) [Compound 157, N-[8-fluoro-2-methylimidazo[1,2-a]pyridin-6-yl]-8-(3-methylpiperazin-1-yl)quinoxaline-5-carboxamide]",0.1 to 1,0.1 to 1
